According to patent publication US20250100995A1, “CEREBLON BINDING COMPOUNDS, COMPOSITIONS THEREOF, AND METHODS OF TREATMENT THEREWITH” (CELGENE CORPORATION, priority 2021, published 2025):

Target: T1, AR (Homo sapiens, UniProt P10275)
T1 construct: endogenous in cells; host or cells: VCaP cells
T1 sequence (P10275 1-920): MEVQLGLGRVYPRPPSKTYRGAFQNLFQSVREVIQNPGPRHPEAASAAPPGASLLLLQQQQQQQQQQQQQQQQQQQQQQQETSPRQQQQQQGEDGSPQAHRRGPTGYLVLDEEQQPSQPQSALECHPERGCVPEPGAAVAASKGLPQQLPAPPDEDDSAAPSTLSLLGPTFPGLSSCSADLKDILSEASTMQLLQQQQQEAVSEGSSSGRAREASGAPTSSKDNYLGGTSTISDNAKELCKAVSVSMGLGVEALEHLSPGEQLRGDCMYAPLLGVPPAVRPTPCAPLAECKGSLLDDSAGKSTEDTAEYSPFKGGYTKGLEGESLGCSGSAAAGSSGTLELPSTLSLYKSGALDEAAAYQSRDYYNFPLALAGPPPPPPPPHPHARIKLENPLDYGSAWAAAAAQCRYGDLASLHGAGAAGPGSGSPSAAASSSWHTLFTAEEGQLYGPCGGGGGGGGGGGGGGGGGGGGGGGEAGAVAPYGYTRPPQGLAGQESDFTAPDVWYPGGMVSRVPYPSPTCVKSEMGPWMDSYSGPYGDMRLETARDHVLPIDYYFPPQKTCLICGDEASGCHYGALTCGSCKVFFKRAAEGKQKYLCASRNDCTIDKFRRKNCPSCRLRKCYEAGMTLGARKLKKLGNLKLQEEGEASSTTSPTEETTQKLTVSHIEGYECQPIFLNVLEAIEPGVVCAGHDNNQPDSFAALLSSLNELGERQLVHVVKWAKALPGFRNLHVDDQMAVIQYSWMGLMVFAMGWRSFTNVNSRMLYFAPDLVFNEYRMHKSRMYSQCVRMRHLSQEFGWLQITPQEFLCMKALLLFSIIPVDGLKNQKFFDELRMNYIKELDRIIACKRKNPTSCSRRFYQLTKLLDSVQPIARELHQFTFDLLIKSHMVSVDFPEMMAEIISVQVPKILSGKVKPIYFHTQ
Assay: VCAP AR Degradation Assay
Assay type: cell-based
Conditions: VCaP cells, 24 h, AR ELISA; for DC50: concentration of compound when AR level = 50% of DMSO control; for Y: lowest measured AR level normalized to DMSO control (AR degradation efficiency)
Experimental: VCAP AR Degradation Assay. Test compounds were pre-dispensed into a Corning CellBind 96-well clear bottom plate (Cat #3300) using an acoustic dispenser to make a 10-point concentration series at 1:3 dilution for each compound. The final top concentration of each compound was 5 μM. DMSO at a final concentration of 0.1% was used as a control. VCaP cells cultured in DMEM with 8% fetal bovine serum (FBS) were seeded at 50K cells per well in a 200 μL volume into the compound plate and incubated at 37° C. in a CO2 incubator for 24 h. The medium was carefully removed from the cells and the plate was placed on ice. One hundred μL of ice-cold 1× cell lysis buffer from Cell Signaling Technologies (Cat #9803) was added to each well of the cells and the plate was incubated at 4° C. on a shaker for 1 h. Fifteen μL of cell lysate was used for AR ELISA detection using a PathScan Total Sandwich AR ELISA kit (Cell Signaling Technology, Cat #12580). AR levels in compound-treated wells were normalized to that of DMSO control and expressed as percent of control (PoC) (y). A Four Parameter Logistic Model (Sigmoidal Dose-Response Model) was used to determine the compound's DC50, and EC50, using the following equation: […]
The lowest measured AR level normalized to DMSO control in response to compound treatment, termed Y value, was used to characterize the compound-mediated AR degradation efficiency.

Compound | DC50 [nM] | Y
C[C@@H]1C[C@H](OCCO[C@H]2CC[C@H](N3C(=S)N(c4ccc(C#N)c(C(F)(F)F)c4)C(=O)C3(C)C)CC2)C[C@H](C)N1CC(=O)Nc1cc(C2CCC(=O)NC2=O)ccn1 (stereo partly drawn) [Cmpd 29, 2-((2R,4r,6S)-4-(2-(((trans)-4-(3-(4-Cyano-3-(trifluoromethyl)phenyl)-5,5-dimethyl-4-oxo-2-thioxoimidazolidin-1-yl)cyclohexyl)oxy)ethoxy)-2,6-dimethylpiperidin-1-yl)-N-(4-(2,6-dioxopiperidin-3-yl)pyridin-2-yl)acetamide] | 5 to 50 | ** (20%<Y≤40%)
C[C@@H]1C[C@H](OCC[C@H]2CC[C@H](N3C(=S)N(c4cnc(C#N)c(C(F)(F)F)c4)C(=O)C3(C)C)CC2)C[C@H](C)N1CC(=O)Nc1cc(C2CCC(=O)NC2=O)ccn1 (stereo partly drawn) [Cmpd 30, 2-((2R,4r,6S)-4-(2-((trans)-4-(3-(6-Cyano-5-(trifluoromethyl)pyridin-3-yl)-5,5-dimethyl-4-oxo-2-thioxoimidazolidin-1-yl)cyclohexyl)ethoxy)-2,6-dimethylpiperidin-1-yl)-N-(4-(2,6-dioxopiperidin-3-yl)pyridin-2-yl)acetamide] | 5 to 50 | * (0<Y≤20%)
